SMILES strings stand for the structures. Calls of active or inactive are those of the source. The rule behind the calls is not given here. A value given as a limit tells only on which side of the number the result lay.

For the assay, the target named is RanGTP-importin-beta complex (human Ran / KPNB1). In words: disruptors of RanGTP/KPNB1 binding – biochemical, FRET, CFP/YFP, cell-free homogeneous, confirmation (AID 2823). The settings on record: CFP-Ran/YFP-importin-beta FRET ratio.
Broadly, the IC50 is the concentration needed to halve the response being measured. For the molecule `CCOc1ccc(Nc2c3ccccc3nc3ccccc23)cc1`, the IC50 is > 50 µM (inactive).
To `O=C(Cc1cc(=O)oc2cc(O)ccc12)NCC1CCC(C(=O)O)CC1` (stereo not given) belongs 10.4 µM; to `Oc1c(C(Nc2nc3ccccc3s2)c2ccco2)ccc2cccnc12` (stereo not given), > 50 µM (inactive).
In the case of `O=C(Nc1ccccc1-c1ccccc1)c1cccs1`, the IC50 was > 50 µM (inactive).
Then `O=C(O)/C=C/C(=O)Nc1ccc2c(c1)NC(=O)CO2`, with > 50 µM (inactive).
Then `Cc1c(OCC(=O)NCc2ccncc2)ccc2c3c(c(=O)oc12)CCC3`, with > 50 µM (inactive).
To `O=C(CN1C(=O)NC2(CCCC2)C1=O)Nc1nc2c(F)cc(F)cc2s1` belongs > 50 µM (inactive); to `Nc1ccc(C2(c3ccc(N)cc3)CN3CCC2CC3)cc1`, > 50 µM (inactive); to `O=C1NC(=O)N(Cc2ccccc2)C(=O)/C1=C/N1CCCc2ccccc21`, > 50 µM (inactive).
As to `Nc1nonc1-n1nnc(C(=O)N/N=C/c2ccccc2)c1CSc1ccc(Cl)cc1`, the IC50 is > 50 µM (inactive).
To `COc1cc(C(=O)NCCNc2nc3cc(C)ccc3cc2C#N)cc(OC)c1OC` belongs 34.6 µM; to `Cc1cccc(CN2CCc3c(OCC(=O)N4CCCc5ccccc54)cccc3C2=O)c1`, > 50 µM (inactive); to `CCCc1cc(=O)oc2c(CN3CCN(C)CC3)c(O)c(Cl)cc12`, 28.4 µM.
Regarding `Cc1c(CC(=O)NCC(=O)N[C@H](Cc2ccccc2)C(=O)O)c(=O)oc2cc(O)ccc12`, the IC50 is 46.2 µM.
To `Cc1ccccc1-n1cnc2cc(NCc3cccs3)ccc21` belongs > 50 µM (inactive).
To `CCCC1C(C#N)=C(N)Oc2cc(C)n(C)c(=O)c21` (stereo not given) belongs > 50 µM (inactive); to `COc1cc(C(=O)N2CCCN(c3nc4cc(C)ccc4cc3C#N)CC2)cc(OC)c1OC`, 10.9 µM.
Then `O=c1cc(N2CCN(Cc3ccccc3)CC2)[nH]c(=O)n1-c1ccc(Br)cc1`, with > 50 µM (inactive); and `CC1(C)CC(=O)NC=C(c2ccccc2)C1`, with > 50 µM (inactive).
In the case of `COc1ccc2c(C)c(C(=O)N3CC[C@@H](N4CCC(O)CC4)[C@H](O)C3)oc2c1`, the IC50 was > 50 µM (inactive).
To `Cc1ccccc1-n1c(=O)cc(N2CC(C)OC(C)C2)[nH]c1=O` (stereo not given) belongs > 50 µM (inactive).
Then `CCc1ccc(C(=O)CSc2ncn[nH]2)cc1`, with > 50 µM (inactive); and `Cc1cc(C(=O)N2CCc3c([nH]c4ccccc34)C2c2c(F)cccc2Cl)no1` (stereo not given), with > 50 µM (inactive); and `Cc1c(Cl)c([N+](=O)[O-])nn1CCCC(=O)Nc1sc2c(c1C(N)=O)CCC(C)C2` (stereo not given), with > 50 µM (inactive).
Turning to `COc1cc(S(=O)(=O)NCCCN2CCOCC2)ccc1Cl`, the IC50 is > 50 µM (inactive).
To `CN1CCN(C(=O)c2ccccc2Nc2ccc(SC(F)F)cc2)CC1` belongs > 50 µM (inactive).
Then `COc1cccc(C2=NOC(C(=O)Nc3cc(C)on3)C2)c1` (stereo not given), with > 50 µM (inactive).
To `CCOC(=O)C/C(=N\Nc1ncnc2ccccc12)c1ccccc1` belongs > 50 µM (inactive).
With `CC(NC(=O)/C(C#N)=C/c1ccc(N2CCOCC2)cc1)c1ccccc1` (stereo not given), the concentration for half-maximal inhibition (IC50) is 20.2 µM.
Consider `N=c1c(S(=O)(=O)c2ccc(Br)cc2)cc2c(=O)n3ccccc3nc2n1C1CCCCC1`, for which the IC50 was > 50 µM (inactive).
To `COc1ccc(C(=O)Nc2sc3c(c2C#N)CCN(C(C)=O)C3)cc1` belongs > 50 µM (inactive); to `Cc1ccc(OCC(=O)NNc2c3ccccc3nc3ccccc23)cc1`, > 50 µM (inactive).
Then `Cc1cc(C)c[n+](-c2nc3ccccc3nc2[N-]S(=O)(=O)c2ccc(Br)s2)c1`, with 3.68 µM.
Then `COc1ccc(/C=N/NC(=O)c2sc3nc(C)cc(C)c3c2N)cc1`, with 21 µM; and `CCCCN(C)C(=O)c1cccc(OC2CCN(CC(C)(C)C)CC2)c1`, with > 50 µM (inactive); and `CCN(CC)S(=O)(=O)c1ccc(NC(=O)c2ccc(Sc3nncn3C)c([N+](=O)[O-])c2)cc1`, with > 50 µM (inactive).
Consider `Cc1ccc(C(=O)Nc2ncc(Cc3ccc(F)cc3)s2)o1`, for which the IC50 was > 50 µM (inactive).
Then `Cc1sc2nc(COC(=O)Cc3ccccc3)[nH]c(=O)c2c1C`, with > 50 µM (inactive); and `C/C(=C\C(=O)C(F)(F)F)Nc1ccc(C(F)(F)F)cc1`, with > 50 µM (inactive).
To `Cc1nc2[nH]c(=O)c3c(n2n1)NC1=C(C(=O)CC(C)(C)C1)C3c1ccc(F)cc1` (stereo not given) belongs 2.73 µM; to `Cc1sc2c(c1C)C(=O)NC(c1ccccc1F)N2` (stereo not given), > 50 µM (inactive).
Then `CCOC(=O)CNC(=O)C1CCCN(c2ncccn2)C1` (stereo not given), with > 50 µM (inactive); and `O=C(O)Cn1cc(/C=C2/SC(=O)N(CC(=O)N3CCCCCC3)C2=O)c2ccccc21`, with 44.1 µM.
`Cc1cnc(=O)[nH]c1SCC(=O)c1ccc(F)cc1`: the IC50 was > 50 µM (inactive).
To `CC(=O)c1c(N2CCN(C)CC2)nc(=S)n(-c2cc(C)ccc2C)c1C` belongs > 50 µM (inactive).
On to `CCN(CC)S(=O)(=O)c1ccc2oc(C(=O)NCCCN3CCOCC3)c(C)c2c1`, for which the IC50 was > 50 µM (inactive).
As for `COc1ccc(C(=O)c2cc3ccc(O)cc3oc2=O)cc1`, the IC50 is 16.4 µM.
To `COC(=O)C1=CN(C2CC2)C=C(C(=O)OC)C1c1ccc(C(F)(F)F)cc1` belongs 30.8 µM; to `CC(c1nc2ccccc2n1Cc1ccccc1)N1CCCCC1` (stereo not given), > 50 µM (inactive); to `COC(=O)C1=C(C)NC(C)=C(C(=O)OC)C1C(=O)OC(C)C(=O)c1ccccc1` (stereo not given), > 50 µM (inactive).
To `CC1Cc2cc(S(=O)(=O)NCc3ccccc3)ccc2N1C(=O)C1CC1` (stereo not given) belongs > 50 µM (inactive).
To `CCOC(=O)C(=O)Nc1cc(C(=O)OC)cc(C(=O)OC)c1` belongs > 50 µM (inactive); to `CC(C)NC(=O)C1CC=CCC1C(=O)O` (stereo not given), > 50 µM (inactive); to `COc1ccc(CCNc2nc3ccccc3n3nnnc23)cc1OC`, 40.1 µM.
Consider `OCC1(Cc2cccc(Cl)c2)CCCN(Cc2ccc3cc(F)ccc3n2)C1` (stereo not given), for which the IC50 was > 50 µM (inactive).
`CC1=Nc2ccccc2/C1=C\c1sc(Nc2ccc(C)cc2)nc1O`: the IC50 is > 50 µM (inactive).
Then `OCCNc1c2ccccc2nc2ccccc12`, with 3.94 µM; and `CC1(C(=O)O)C=CCN1C(=O)c1ccccc1` (stereo not given), with > 50 µM (inactive); and `O=C(O)COc1ccc(F)cc1Br`, with > 50 µM (inactive).
In the case of `O=C(CN1CCOCC1)NNc1c2ccccc2nc2ccccc12`, the IC50 was > 50 µM (inactive).
In the case of `O=C(Cc1ccccc1)NNc1c2ccccc2nc2ccccc12`, the IC50 is > 50 µM (inactive).
Take `CCN1/C(=C\C=C\C2=[N+](CC)c3ccccc3C2(C)C)C(C)(C)c2ccccc21`: the IC50 is 9.18 µM.
To `CC(C)OC(=O)c1c(N)n(CC2CCCO2)c2nc3ccccc3nc12` (stereo not given) belongs 18 µM; to `CC1(C)CCC(=O)C=C1Nc1ccc(F)c(Cl)c1`, > 50 µM (inactive); to `CCOC(=O)N1CCN(c2cc(=O)n(-c3ccccc3C)c(=O)[nH]2)CC1`, > 50 µM (inactive).
To `CCCC(C)c1nnc(NC(=O)C2CC(=O)N(c3ccc(OCC)cc3)C2)s1` (stereo not given) belongs > 50 µM (inactive); to `CC(C)n1c(O)c(C2c3cc(Cl)ccc3Oc3[nH]c(=O)n(C(C)C)c(=O)c32)c(=O)[nH]c1=O` (stereo not given), > 50 µM (inactive).
For `COC(=O)C1=C(C)NC2=C(C(=O)CCC2)C1c1cccc(C)n1` (stereo not given), the IC50 is 25.5 µM.
Then `CCOC(=O)C1=C(N)Oc2ccc3ccccc3c2C1c1ccc(O)c(OC)c1` (stereo not given), with > 50 µM (inactive); and `CC1CCN(c2cc(=O)n(C3CCCCC3)c(=O)[nH]2)CC1`, with > 50 µM (inactive); and `O=c1cc(N2CCC(Cc3ccccc3)CC2)[nH]c(=O)n1C1CCCCC1`, with > 50 µM (inactive).
On to `CCOC(=O)N1CCN(/C=C(\C#N)c2nc3ccccc3s2)CC1`, for which the IC50 was > 50 µM (inactive).
Then `COCCCNC(=O)/C(C#N)=C/c1c(N2CCN(c3ccccc3)CC2)nc2ccccn2c1=O`, with 25.9 µM; and `COc1cc(/C(O)=C(\C#N)c2nc3ccccc3[nH]2)cc(OC)c1OC`, with 15.5 µM.
For the molecule `CC1=NN(C(=O)c2ccccc2)C(O)(c2ccc(Br)cc2)C1` (stereo not given), the IC50 is > 50 µM (inactive).
To `COc1ccc(C(=O)N/N=C/c2c(CO)cnc(C)c2O)cc1` belongs 3.13 µM; to `Cc1cccc(N2CCN(C(=O)C3COc4ccccc4O3)CC2)c1C` (stereo not given), > 50 µM (inactive).
On to `O=C(CSCC(=O)NC1CC1)Nc1ccccc1`, for which the IC50 was > 50 µM (inactive).
Then `CCc1ccc(-c2nc(CSCC(=O)N3CCN(c4ccccn4)CC3)c(C)o2)cc1`, with > 50 µM (inactive).
Then `CCC1(C(=O)OC)NC(c2cccc(F)c2)C2C(=O)N(C)C(=O)C21` (stereo not given), with > 50 µM (inactive); and `CO/N=C\c1cc(C(=O)c2ccc(Cl)cc2Cl)cn1C`, with > 50 µM (inactive); and `CN1CC2=CC(O)CC3Oc4c(O)ccc(c4[C@]23C)C1` (stereo not given in full), with > 50 µM (inactive).
To `CCCn1cnc2cc(NCc3ccc(Br)cc3)ccc21` belongs > 50 µM (inactive); to `c1ccc(Nc2nc3ccccc3n3nnnc23)cc1`, 27.7 µM.
As for `CC(=O)O[C@H]1CCC2C3CCC4=CC(=O)CCC4=C3C=C[C@@]21C` (stereo not given in full), the IC50 is > 50 µM (inactive).
To `Cc1cc(C(=O)COC(=O)c2nc3nccc(C)n3n2)c(C)n1CC1CCCO1` (stereo not given) belongs > 50 µM (inactive); to `CC(=O)c1cc(C#N)c(N2CC(C)OC(C)C2)nc1C` (stereo not given), > 50 µM (inactive); to `CCCCc1cc(-c2n[nH]c(=S)o2)c2ccccc2n1`, > 50 µM (inactive).
On to `COc1ccc(CCNc2oc(-c3ccco3)nc2C#N)cc1`, for which the IC50 was > 50 µM (inactive).
In the case of `Cc1cccc(-n2c(O)c(/C=C/C=Nc3ccccc3)c(=O)[nH]c2=O)c1`, the 50% inhibitory concentration (IC50) is 3.6 µM.

(Values after PubChem BioAssay AID2823 (Broad Institute, 2010).)
